Reference: article PMC6112376, “Comprehensive Analyses and Prioritization of Tox21 10K Chemicals Affecting Mitochondrial Function by in-Depth Mechanistic Studies” (Environmental Health Perspectives, 2018)
Like-named read-outs stand apart in the source and are kept apart here.

Assays:
HepG2 cells [1] = experiment: ROS-Glo hydrogen peroxide (ROS) assay; type: cell-based, human; details: Homo sapiens, HepG2, 2 h, read-out: ROS (HepG2) EC50
[2] = test system: mitochondrial respiratory chain complex V; type: biochemical, rat; details: at 20μM
[3] = test system: mitochondrial respiratory chain complex IV; type: biochemical, rat
HepG2 cells [4] = experiment: Intracellular ATP content (cell viability) assay; type: cell-based, human; details: Homo sapiens, HepG2, 40 h
[5] = test system: mitochondrial respiratory chain complex I; type: biochemical, rat
[6] = test system: Nrf2/ARE (ARE-bla HepG2 cells); experiment: ARE β-lactamase reporter gene assay; type: cell-based, human; details: 16 h incubation; mean±SD of three experiments
[7] = test system: p53 (p53-bla HCT-116 cells); experiment: p53 β-lactamase reporter gene assay; type: cell-based, human; details: Homo sapiens; 16 h incubation; mean±SD of three experiments
[8] = test system: HeLa cells expressing YFP-Parkin; experiment: Parkin translocation assay; type: cell-based, human
rat primary hepatocytes [9] = experiment: MMP assay in rat primary hepatocytes; details: Rattus norvegicus, Hepatocyte
hNSC = experiment: MMP assay in human neural stem cells (hNSC); type: cell-based; details: Homo sapiens, Neural stem cell, 1 h, read-out: hNSC IC50 (MMP)
[10] = test system: Caenorhabditis elegans (Bristol N2); experiment: C. elegans larval development and growth assay
HepG2 cells [11] = details: cited from earlier work
[12] = test system: mitochondrial respiratory chain complex III; type: biochemical, rat
HepG2 cells [13] = experiment: cells; details: Homo sapiens
[14] = target: T1, mitochondrial respiratory chain complex II (Rattus norvegicus, UniProt P21913+Q641Z9+Q6PCT8+Q920L2); experiment: Respiratory chain complex II activity; type: biochemical; details: at 0.8μM; mean±SD of three experiments
T1 construct: Submitochondrial particles were prepared by subjecting the intact rat mitochondria, isolated as described above, to three successive freeze–thaw cycles; from tissue; host or cells: rat liver mitochondria (submitochondrial particles)
T1 sequence (Q920L2 35-656): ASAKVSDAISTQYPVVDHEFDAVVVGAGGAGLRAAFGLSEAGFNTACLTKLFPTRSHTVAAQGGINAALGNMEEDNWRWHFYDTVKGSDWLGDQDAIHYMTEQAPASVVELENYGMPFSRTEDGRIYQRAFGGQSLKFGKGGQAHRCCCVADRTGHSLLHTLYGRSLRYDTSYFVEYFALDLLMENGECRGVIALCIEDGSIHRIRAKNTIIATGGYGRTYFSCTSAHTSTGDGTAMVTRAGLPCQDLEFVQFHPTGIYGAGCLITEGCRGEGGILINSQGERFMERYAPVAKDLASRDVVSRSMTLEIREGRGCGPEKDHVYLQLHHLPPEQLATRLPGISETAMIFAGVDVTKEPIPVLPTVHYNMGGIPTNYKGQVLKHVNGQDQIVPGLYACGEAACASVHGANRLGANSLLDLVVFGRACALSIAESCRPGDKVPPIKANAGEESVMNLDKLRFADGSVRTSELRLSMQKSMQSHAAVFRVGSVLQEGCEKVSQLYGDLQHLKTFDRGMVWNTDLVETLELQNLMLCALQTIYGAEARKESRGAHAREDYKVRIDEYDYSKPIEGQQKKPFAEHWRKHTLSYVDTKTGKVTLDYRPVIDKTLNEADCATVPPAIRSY
T1 sequence (P21913 31-282): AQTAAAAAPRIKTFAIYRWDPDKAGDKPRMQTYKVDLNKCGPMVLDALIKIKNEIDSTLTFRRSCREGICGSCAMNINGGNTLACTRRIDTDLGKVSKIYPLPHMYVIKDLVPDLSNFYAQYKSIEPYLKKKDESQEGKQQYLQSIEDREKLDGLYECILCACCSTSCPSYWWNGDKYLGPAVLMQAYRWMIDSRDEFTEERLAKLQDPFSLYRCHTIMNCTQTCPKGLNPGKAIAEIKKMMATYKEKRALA
T1 sequence (Q641Z9 1-169): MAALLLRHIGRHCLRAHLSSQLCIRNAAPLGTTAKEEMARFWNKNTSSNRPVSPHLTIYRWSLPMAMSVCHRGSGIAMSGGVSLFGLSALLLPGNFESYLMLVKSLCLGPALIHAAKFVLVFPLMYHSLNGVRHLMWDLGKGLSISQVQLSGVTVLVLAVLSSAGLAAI
T1 sequence (Q6PCT8 57-159): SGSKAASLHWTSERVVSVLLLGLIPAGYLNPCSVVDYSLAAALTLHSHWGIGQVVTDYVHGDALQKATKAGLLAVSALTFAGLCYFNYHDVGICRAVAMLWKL

[15] = test system: Caenorhabditis elegans strain PE255; experiment: In vivo C. elegans ATP status assay
[16] = test system: Caenorhabditis elegans (Bristol N2); details: Bristol N2 (wild type), Caenorhabditis elegans, in vivo
rat primary hepatocytes [17] = test system: rat primary hepatocytes
[18] = test system: isolated rat liver mitochondria; experiment: Oxygen consumption, Clark-type oxygen electrode; type: biochemical

For `O=C(Nc1ccc(Oc2ccc(Cl)cc2)c(Cl)c1)c1cc(I)cc(I)c1O` [Rafoxanide, reference compound], the EC50 (HepG2 cells [1]) was 26.5 µM, the “Complex V % inhibition” value [2] was 40.1±1.87 at 20μM % and the “Complex IV % inhibition (activity call)” value [3] was “Inactive”. For the same compound, the IC50 (HepG2 cells [4]; read-out: ATP (HepG2, galactose) IC50) was 54.1 µM, the IC50 (HepG2 cells [4]; read-out: ATP (HepG2, glucose) IC50) was 46.7 µM and the “Complex I % inhibition (activity call)” value [5] was “Inactive”. The “ARE (HepG2) EC50” value [6] was “Inactive”, the EC50 [7] was 9.11 ± 3.81 µM and the Parkin recruitment [8] was “Active”. It also gave an IC50 (rat primary hepatocytes [9]; 1 h, read-out: Rat hepatocytes IC50 (MMP)) of 4.5 µM, an IC50 (rat primary hepatocytes [9]; read-out: MMP assays IC50 (µM) Rat Hepatocytes) of 1.86 ± 0.83 µM and an IC50 (hNSC) of 10.3 µM. For the same compound, the “EXT: mean difference in nematode size relative to plate controls” value ([10]; 0.5 µM) was -0.03197, the “EXT: mean difference in nematode size relative to plate controls” value ([10]; 1 µM) was 0.04544 and the “EXT: mean difference in nematode size relative to plate controls” value ([10]; 5 µM) was 0.3092. The “EXT: mean difference in nematode size relative to plate controls” value ([10]; 10 µM) was 0.3633, the “EXT: mean difference in nematode size relative to plate controls” value ([10]; 25 µM) was 1.242 and the “EXT: mean difference in nematode size relative to plate controls” value ([10]; 50 µM) was 1.69. The “EXT: mean difference in nematode size relative to plate controls” value ([10]; 75 µM) was 0.8224, the “EXT: mean difference in nematode size relative to plate controls” value ([10]; 100 µM) was 0.8924 and the minimal effective concentration ([10]; Caenorhabditis elegans, read-out: LEC EXT: lowest effect concentration for extinction, a measure of nematode size) was 2.5 µM. For the same compound, the “MMP assays efficacy (%) qHTS-HepG2” value (HepG2 cells [11]) was -110±8%, the IC50 (HepG2 cells [11]; read-out: MMP assays IC50 (µM), qHTS-HepG2) was 3.27 ± 1.76 µM and the “Complex III % inhibition (activity call)” value [12] was “Inactive”. It also gave an IC50 (HepG2 cells [13]; HepG2, 1 h, read-out: HepG2 IC50 Galactose (MMP)) of 18.6 µM, an IC50 (HepG2 cells [13]; HepG2, 1 h, read-out: HepG2 IC50 Glucose (MMP)) of 20.9 µM and an IC50 (HepG2 cells [13]; HepG2, read-out: MMP assays IC50 (µM) HepG2) of 1.23 µM. The Emax (HepG2 cells [13]; HepG2, read-out: MMP assays efficacy (%) HepG2) was 119%, the inhibition at 0.8 µM [14] was 44.4 ± 6.56% and the “LUM: mean difference in luminescence (ATP content) relative to plate controls” value ([15]; 0.5 µM) was 0.09174. For the same compound, the “LUM: mean difference in luminescence (ATP content) relative to plate controls” value ([15]; 1 µM) was -0.0514, the “LUM: mean difference in luminescence (ATP content) relative to plate controls” value ([15]; 5 µM) was 0.4289 and the “LUM: mean difference in luminescence (ATP content) relative to plate controls” value ([15]; 10 µM) was 0.2032. For the same compound, the “LUM: mean difference in luminescence (ATP content) relative to plate controls” value ([15]; 25 µM) was 0.5878, the “LUM: mean difference in luminescence (ATP content) relative to plate controls” value ([15]; 50 µM) was 0.4453 and the “LUM: mean difference in luminescence (ATP content) relative to plate controls” value ([15]; 75 µM) was 0.5488. For the same compound, the “LUM: mean difference in luminescence (ATP content) relative to plate controls” value ([15]; 100 µM) was 0.6986, the minimal effective concentration ([15]; Caenorhabditis elegans, read-out: LEC LUM: lowest effect concentration for luminescence, a measure of nematode ATP content) was 75 µM and the “LEC (lowest effect concentration), larval growth assay” value [16] was no more than 10 µM. For the same compound, the “MMP assays efficacy (%) Rat Hepatocytes” value (rat primary hepatocytes [17]) was -91±18%, the “Rat hepatocytes (efficacy) (MMP)” value (rat primary hepatocytes [17]) was 4.50±0.81 ( −72.1±10.3 ) % and the “Potential Mechanism” value [18] was “Uncoupler + inhibitor”. The “I-ADP, % of control (O2 consumption rate)” value ([18]; 0.0064 µM) was 93 (51.1) % of control, the “I-sub, % of control (O2 consumption rate)” value ([18]; 0.0064 µM) was 94 (12.3) % of control and the “II-ADP, % of control (O2 consumption rate)” value (“II-ADP, % of control” below) ([18]; 0.0064 µM) was 100 (88.4) % of control. For the same compound, the “II-sub, % of control (O2 consumption rate)” value (shortened to “II-sub, % of control”) ([18]; 0.0064 µM) was 99 (24.3) % of control, the “I-ADP, % of control (O2 consumption rate)” value ([18]; 0.032 µM) was 90 (41.4) % of control and the “I-sub, % of control (O2 consumption rate)” value ([18]; 0.032 µM) was 118 (13.2) % of control. The “II-ADP, % of control” value ([18]; 0.032 µM) was 70 (52.6) % of control, the “II-sub, % of control” value ([18]; 0.032 µM) was 97 (20.0) % of control and the “I-ADP, % of control (O2 consumption rate)” value ([18]; 0.16 µM) was 105 (48.3) % of control. For the same compound, the “I-sub, % of control (O2 consumption rate)” value ([18]; 0.16 µM) was 163 (18.3) % of control, the “II-ADP, % of control” value ([18]; 0.16 µM) was 63 (47.1) % of control and the “II-sub, % of control” value ([18]; 0.16 µM) was 116 (23.9) % of control. The “I-ADP, % of control (O2 consumption rate)” value ([18]; 0.8 µM) was 121 (55.6) % of control, the “I-sub, % of control (O2 consumption rate)” value ([18]; 0.8 µM) was 379 (42.5) % of control and the “II-ADP, % of control” value ([18]; 0.8 µM) was 45 (33.6) % of control. For the same compound, the “II-sub, % of control” value ([18]; 0.8 µM) was 137 (28.2) % of control, the “I-ADP, % of control (O2 consumption rate)” value ([18]; 4 µM) was 95 (43.7) % of control and the “I-sub, % of control (O2 consumption rate)” value ([18]; 4 µM) was 399 (44.7) % of control. The “II-ADP, % of control” value ([18]; 4 µM) was 23 (17.4) % of control, the “II-sub, % of control” value ([18]; 4 µM) was 88 (18.1) % of control and the “I-ADP, % of control (O2 consumption rate)” value ([18]; 20 µM) was 15 (7.1) % of control. For the same compound, the “I-sub, % of control (O2 consumption rate)” value ([18]; 20 µM) was 116 (13.0) % of control, the “II-ADP, % of control” value ([18]; 20 µM) was 15 (11.3) % of control and the “II-sub, % of control” value ([18]; 20 µM) was 55 (11.4) % of control.
